Values quoted from earlier work in US20250041318A1, “STERILANTS COMPOSITION, KITS AND METHODS OF USE THEREOF” (priority 2021, published 2025).
Like-named read-outs stand apart in the source and are kept apart here.

Key:
pancreatic cancer = conditions: preclinical mouse model of pancreatic cancer
[1] = test system: LDH isozymes (LDH-A4, LDH-B4, LDH-C4)
[2] = biological target: LDH from goat testis (LDH-C4)
[3] = biological target: LDH from goat heart (LDH-B4)
[4] = biological target: LDH from goat liver (LDH-A4)
[5] = Lineweaver-Burk reciprocal plots

CC(C)[C@]12O[C@H]1[C@@H]1O[C@]13[C@]1(O[C@H]1C[C@H]1C4=C(CC[C@@]13C)C(=O)OC4)[C@@H]2OCOP(=O)(O)O [Minnelide]
Efficacy compared with gemcitabine (pancreatic cancer): even more effective than gemcitabine

Cc1cc2c(C(C)C)c(O)c(O)c(C=O)c2c(O)c1-c1c(C)cc2c(C(C)C)c(O)c(O)c(C=O)c2c1O [gossypol]
IC50 ([1]; 3.3 mM lactic acid and 1.8 mM NAD at 25 degrees C. and pH 9.0, read-out: IC50 for the lactate oxidation): 125 µM
Manner of inhibition when NAD and NADH were varied as substrates [1, 5]: competitive
Manner of inhibition with respect to pyruvate and lactate [1, 5]: non-competitive
Ki ([2]; read-out: Ki against NAD): 83 µM
Ki ([2]; read-out: Ki against NADH): 45 µM
Ki ([2]; read-out: Ki against lactate): 125 µM
Ki ([2]; read-out: Ki against pyruvate): 29 µM
Ki ([3]; read-out: Ki against NAD): 108 µM
Ki ([3]; read-out: Ki against NADH): 43 µM
Ki ([3]; read-out: Ki against lactate): 85 µM
Ki ([3]; read-out: Ki against pyruvate): 34 µM
Ki ([4]; read-out: Ki against NAD): 94 µM
Ki ([4]; read-out: Ki against NADH): 33 µM
Ki ([4]; read-out: Ki against lactate): 85 µM
Ki ([4]; read-out: Ki against pyruvate): 20 µM
